Test results: patent publication US10450321B2, “[1,2,3]triazolo[4,5-D]pyrimidine derivatives” (Hoffmann-La Roche Inc., priority 2016, dated 2019)
Read-outs that look alike come from different tables or passages of the source.

What was measured:
human CB1 receptor = human CB1 receptor (Homo sapiens (Human), UniProt P21554); assay: Radioligand binding assay, [3H]-CP-55,940, HEK cell membranes expressing human CNR1
Protocol: (§1) Radioligand Binding Assay
(§2) The affinity of the compounds of the invention for cannabinoid receptors was determined using recommended amounts of membrane preparations (PerkinElmer) of human embryonic kidney (HEK) cells expressing the human CNR1 or CNR2 receptors in conjunction with 1.5 or 2.6 nM [3H]-CP-55,940 (Perkin Elmer) as radioligand, respectively. Binding was performed in binding buffer (50 mM Tris, 5 mM MgCl2, 2.5 mM EDTA, and 0.5% (wt/vol) fatty acid free BSA, pH 7.4 for CB1 receptor and 50 mM Tris, 5 mM MgCl2, 2.5 mM EGTA, and 0.1% (wt/vol) fatty acid free BSA, pH 7.4 for CB2 receptor) in a total volume of 0.2 mL for 1 h at 30° C. shaking. The reaction was terminated by rapid filtration through microfiltration plates coated with 0.5% polyethylenimine (UniFilter GF/B filter plate; Packard). Bound radioactivity was analyzed for Ki using nonlinear regression analysis (Activity Base, ID Business Solution, Limited), with the Kd values for [^3H]CP55,940 determined from saturation experiments.

human CB2 receptor = human CB2 receptor (Homo sapiens (Human), UniProt P34972); assay: Radioligand binding assay, [3H]-CP-55,940, HEK cell membranes expressing human CNR2
Protocol: as §1, §2

[1] = membranes of HEK cells expressing human CNR1, 1.5 nM [3H]-CP-55,940, 1 h at 30° C., read-out: human CB1 Ki
[2] = membranes of HEK cells expressing human CNR2, 2.6 nM [3H]-CP-55,940, 1 h at 30° C., read-out: human CB2 Ki

Sequence of human CB1 receptor (P21554 whole entry): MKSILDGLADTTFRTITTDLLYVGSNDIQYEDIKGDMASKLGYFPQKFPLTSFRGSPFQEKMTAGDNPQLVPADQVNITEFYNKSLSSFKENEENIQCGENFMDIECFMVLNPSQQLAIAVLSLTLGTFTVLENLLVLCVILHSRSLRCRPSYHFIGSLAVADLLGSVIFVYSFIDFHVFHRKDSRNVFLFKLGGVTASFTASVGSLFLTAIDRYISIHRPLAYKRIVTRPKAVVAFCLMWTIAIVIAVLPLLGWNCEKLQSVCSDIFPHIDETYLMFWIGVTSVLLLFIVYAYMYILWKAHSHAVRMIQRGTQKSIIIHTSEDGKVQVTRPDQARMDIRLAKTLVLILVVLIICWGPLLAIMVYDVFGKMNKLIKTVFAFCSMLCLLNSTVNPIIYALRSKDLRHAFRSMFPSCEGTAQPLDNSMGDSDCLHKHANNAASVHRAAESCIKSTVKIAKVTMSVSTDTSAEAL
Sequence of human CB2 receptor (P34972 whole entry): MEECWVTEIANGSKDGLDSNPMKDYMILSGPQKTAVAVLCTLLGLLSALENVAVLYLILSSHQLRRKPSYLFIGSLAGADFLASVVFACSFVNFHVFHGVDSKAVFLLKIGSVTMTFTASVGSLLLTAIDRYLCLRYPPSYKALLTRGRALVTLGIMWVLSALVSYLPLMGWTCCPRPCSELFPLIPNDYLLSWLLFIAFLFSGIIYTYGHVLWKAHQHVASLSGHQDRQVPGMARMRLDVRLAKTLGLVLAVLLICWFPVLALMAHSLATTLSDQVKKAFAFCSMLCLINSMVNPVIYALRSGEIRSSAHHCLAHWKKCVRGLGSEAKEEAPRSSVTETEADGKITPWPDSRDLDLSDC

CC(C)(C)c1nc(N2CCC(F)(F)C2)c2nn(Cc3ccccc3CN=C=S)nc2n1 [Example 6, 5-tert-Butyl-7-(3,3-difluoropyrrolidin-1-yl)-2-{[2-(isothiocyanatomethyl)phenyl]methyl}-2H-[1,2,3]triazolo[4,5-d]pyrimidine]
Ki (human CB1 receptor; [1]): 4880 nM | Ki (human CB2 receptor; [2]): 211 nM

CC(C)(C)c1nc(N2CC[C@H](O)C2)c2nn(Cc3ccccc3CN=C=S)nc2n1 [Example 3, (3S)-1-(5-tert-Butyl-2-{[2-(isothiocyanatomethyl)phenyl]methyl}-2H-[1,2,3]triazolo[4,5-d]pyrimidin-7-yl)pyrrolidin-3-ol]
Ki (human CB1 receptor; [1]): > 10000 nM | Ki (human CB2 receptor; [2]): 529 nM

C#Cc1cccc(S(=O)(=O)F)c1Cn1nc2nc(C(C)(C)C)nc(N3CCC(F)(F)C3)c2n1 [Example 7, 2-[[5-tert-Butyl-7-(3,3-difluoropyrrolidin-1-yl)triazolo[4,5-d]pyrimidin-2-yl]methyl]-3-ethynylbenzenesulfonyl fluoride]
Ki (human CB1 receptor): > 10000 nM | Ki (human CB2 receptor): 421 nM

CC(C)(C)c1nc(N2CCC(F)(F)C2)c2nn(Cc3ccccc3N=C=S)nc2n1 [Example 4, 5-tert-Butyl-7-(3,3-difluoropyrrolidin-1-yl)-2-[(2-isothiocyanatophenyl)methyl]-2H-[1,2,3]triazolo[4,5-d]pyrimidine]
Ki (human CB1 receptor; [1]): > 10000 nM | Ki (human CB2 receptor; [2]): 453 nM

CC(C)(C)c1nc(N2CC[C@H](O)C2)c2nn(Cc3ccccc3S(=O)(=O)F)nc2n1 [Example 1, 2-({5-tert-Butyl-7-[(3S)-3-hydroxypyrrolidin-1-yl]-2H-[1,2,3]triazolo[4,5-d]pyrimidin-2-yl}methyl)benzene-1-sulfonyl fluoride]
Ki (human CB1 receptor): > 10000 nM | Ki (human CB2 receptor): 1160 nM

CC(C)(C)c1nc(N2CCC(F)(F)C2)c2nn(Cc3ccccc3S(=O)(=O)F)nc2n1 [Example 5, 2-{[5-tert-Butyl-7-(3,3-difluoropyrrolidin-1-yl)-2H-[1,2,3]triazolo[4,5-d]pyrimidin-2-yl]methyl}benzene-1-sulfonyl fluoride]
Ki (human CB1 receptor): > 10000 nM | Ki (human CB2 receptor): 361 nM

CC(C)(C)c1nc(N2CCC(F)(F)C2)c2nn(Cc3ccccc3CS(=O)(=O)F)nc2n1 [Example 2, (2-{[5-tert-Butyl-7-(3,3-difluoropyrrolidin-1-yl)-2H-[1,2,3]triazolo[4,5-d]pyrimidin-2-yl]methyl}phenyl)methanesulfonyl fluoride]
Ki (human CB1 receptor): > 10000 nM | Ki (human CB2 receptor): 637 nM
